Measured values published in ChEMBL document CHEMBL5370565, “Inhibition of Cysteine Proteases via Thiol-Michael Addition Explains the Anti-SARS-CoV-2 and Bioactive Properties of Arteannuin B” (J Nat Prod, 2023).
Calls of active or inactive are those of the source. The rule behind the calls is not given here.

Key:
Caspase-8 (Homo sapiens) = Caspase-8 (Homo sapiens) (UniProt Q14790); test: Inhibition of C-terminal 6his tagged human Caspase 8 activity expressed in Escherichia coli BL21 (DE3) cells at 50 uM preincubated for 30 mins by LC-MS analysis
Sequence of Caspase-8 (Homo sapiens) (Q14790 217-374 limits assumed): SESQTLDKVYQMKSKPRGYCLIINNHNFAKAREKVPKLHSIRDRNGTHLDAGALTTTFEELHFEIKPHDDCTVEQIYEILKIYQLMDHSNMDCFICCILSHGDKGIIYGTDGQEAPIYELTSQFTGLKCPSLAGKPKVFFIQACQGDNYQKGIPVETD
Sequence of Caspase-8 (Homo sapiens) (Q14790 385-479 limits assumed): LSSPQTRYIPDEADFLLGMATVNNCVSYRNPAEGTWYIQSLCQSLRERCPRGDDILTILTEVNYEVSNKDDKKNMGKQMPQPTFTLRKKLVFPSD

Glioblastoma cell line = test: Cytotoxicity against glioblastoma (unknown origin) cells assessed as reduction in cell viability at 35 uM incubated for 24 hrs by eFluor 780 fixable viability dye based flow cytometric analysis; assay type: functional
SARS-CoV-2 = test: Antiviral activity against SARS-CoV-2 GX_P2V infected in African green monkey Vero E6 cells assessed as reduction in viral yield pretreated with cells for 2 hrs followed by viral infection and measured after 72 hrs by qRT-PCR analysis; assay type: functional, organism-based; details: Severe acute respiratory syndrome coronavirus 2, GX_P2V, Vero C1008
[1] = test system: Severe acute respiratory syndrome coronavirus 2; test: Inhibition of C-terminal 6his-tagged/N-terminal strepII-tagged SARS-CoV-2 NSP5 expressed in Escherichia coli BL21 (DE3) cells using (4-Fluoro-F)LQS as substrate assessed as (4-fluoro-F)L production at 48 uM preincubated with compound for 60 mins followed by substrate addition and measured after 300 mins by LC-MS analysis relative to control; details: time 360.0 min

Compound	inhibition (Caspase-8 (Homo sapiens))	Activity (Glioblastoma cell line)	EC50 (SARS-CoV-2) [µM]	inhibition [1] [%]
C=C1C(=O)O[C@@]23C1CC[C@@H](C)[C@@H]2CC[C@@]1(C)O[C@@H]31 (stereo not given in full)	Active	Active	8.84	45
C[C@@H]1CC[C@H]2[C@H](C)C(=O)O[C@]23[C@H]1CC[C@@]1(C)O[C@@H]31	–	inactive	–	–
